Where “and” joins values, the source holds several entries; their conditions need not be identical. Equal values may be shown once. Inconclusive results and toxic doses are left out. The calls were made as follows: active = survival T/C of 150% or more; inactive = T/C below 125% in these data. Peptide text beside a SMILES is read from it. * marks the point of attachment. Boc = CC(C)(C)OC(=O)*
Tested on: P388 leukemia ip, CD2F1 mice, survival T/C
Assay: NCI In Vivo Anticancer Drug Screen. Data for tumor model P388 Leukemia (intraperitoneal) in CD2F1 (CDF1) mice
Settings: endpoint: median survival time, higher = longer survival
In short: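 Mice carrying the transplanted tumor received test compound or vehicle. Survival was recorded in each group, and the value is the treated-group measurement divided by that of the vehicle-treated control group.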

[1] = dose: 50.0 mg/kg/injection, schedule: Q01DX009 (ip), vehicle: suspension in saline
[2] = dose: 100.0 mg/kg/injection, schedule: Q01DX009 (ip), vehicle: suspension in saline
[3] = dose: 25.0 mg/kg/injection, schedule: Q01DX005 (ip), vehicle: Klucel (hydroxypropylcellulose) (HPC)
[4] = dose: 50.0 mg/kg/injection, schedule: Q01DX005 (ip), vehicle: Klucel (hydroxypropylcellulose) (HPC)
[5] = dose: 100.0 mg/kg/injection, schedule: Q04DX003 (ip), vehicle: saline
[6] = dose: 200.0 mg/kg/injection, schedule: Q04DX003 (ip), vehicle: saline
[7] = dose: 60.0 mg/kg/injection, schedule: Q01DX005 (ip), vehicle: saline with Tween-80
[8] = dose: 120.0 mg/kg/injection, schedule: Q01DX005 (ip), vehicle: saline with Tween-80
[9] = dose: 240.0 mg/kg/injection, schedule: Q01DX005 (ip), vehicle: saline with Tween-80
[10] = dose: 100.0 mg/kg/injection, schedule: Q01DX005 (ip), vehicle: Klucel (hydroxypropylcellulose) (HPC)
[11] = dose: 200.0 mg/kg/injection, schedule: Q01DX005 (ip), vehicle: Klucel (hydroxypropylcellulose) (HPC)

Measured: T/C

C=CCCC(OC(C)C)OC(C)C
inactive: dose: 50.0 mg/kg/injection, schedule: Q01DX009 (ip), vehicle: saline 98 % of control | dose: 100.0 mg/kg/injection, schedule: Q01DX009 (ip), vehicle: saline 99 % of control | dose: 200.0 mg/kg/injection, schedule: Q01DX009 (ip), vehicle: saline 108 % of control

COc1ccc(C23OCCN2C(=O)c2ccccc23)cc1 (centres undefined)
inactive: dose: 60.0 mg/kg/injection, schedule: Q01DX005 (ip), vehicle: saline + Tween-80 + alcohol 99 % of control | dose: 120.0 mg/kg/injection, schedule: Q01DX005 (ip), vehicle: saline + Tween-80 + alcohol 100 % of control | dose: 240.0 mg/kg/injection, schedule: Q01DX005 (ip), vehicle: saline + Tween-80 + alcohol 101 % of control

O=C(O)CN1C(=O)c2cccc3cccc(c23)C1=O
inactive: [1] 101 % of control | [2] 102 % of control | dose: 200.0 mg/kg/injection, schedule: Q01DX009 (ip), vehicle: suspension in saline 100 % of control

O=C1CCN2CO[C@H](c3ccccc3)C[C@@H]2C1
inactive: dose: 12.5 mg/kg/injection, schedule: Q01DX005 (ip), vehicle: Klucel (hydroxypropylcellulose) (HPC) 103 % of control | [3] 102 % of control | [4] 102 % of control

Cc1ccn2cc(CC(=O)O)nc2n1
inactive: [5] 101 % of control | [6] 106 % of control | dose: 400.0 mg/kg/injection, schedule: Q04DX003 (ip), vehicle: saline 105 % of control

Oc1ccc(C[n+]2ccccc2)cc1O
inactive: dose: 3.12 mg/kg/injection, schedule: Q01DX005 (ip), vehicle: saline 101 % of control and 97 % of control | dose: 6.25 mg/kg/injection, schedule: Q01DX005 (ip), vehicle: saline 102 % of control and 103 % of control | dose: 12.5 mg/kg/injection, schedule: Q01DX005 (ip), vehicle: saline 100 % of control and 105 % of control | dose: 25.0 mg/kg/injection, schedule: Q01DX005 (ip), vehicle: saline 92 % of control and 97 % of control

COc1ccc(OC)c(C2SCC(=O)N2c2nncs2)c1 (centres undefined)
inactive: [7] 104 % of control | [8] 97 % of control | [9] 97 % of control

CC(C)[Si](C#CC[Si](C(C)C)(C(C)C)C(C)C)(C(C)C)C(C)C
inactive: [7] 105 % of control | [8] 98 % of control | [9] 100 % of control

COC(=O)C12OCC34C(CC5C(C)=C(O)C(=O)CC5(C)C3C(O)C1O)OC(=O)C(OC(=O)C=C(C)C)C24 (centres undefined)
inactive: dose: 0.13 mg/kg/injection, schedule: Q01DX009 (ip), vehicle: saline 100 % of control | dose: 0.25 mg/kg/injection, schedule: Q01DX009 (ip), vehicle: saline 100 % of control | dose: 0.5 mg/kg/injection, schedule: Q01DX009 (ip), vehicle: saline 96 % of control | dose: 2.0 mg/kg/injection, schedule: Q01DX009 (ip), vehicle: saline 98 % of control | dose: 4.0 mg/kg/injection, schedule: Q01DX009 (ip), vehicle: saline 100 % of control | dose: 125.0 micrograms/kg/injection, schedule: Q01DX009 (ip), vehicle: saline + alcohol 104 % of control | dose: 250.0 micrograms/kg/injection, schedule: Q01DX009 (ip), vehicle: saline + alcohol 102 % of control | dose: 500.0 micrograms/kg/injection, schedule: Q01DX009 (ip), vehicle: saline + alcohol 104 % of control | dose: 1000.0 micrograms/kg/injection, schedule: Q01DX009 (ip), vehicle: saline + alcohol 95 % of control | dose: 2000.0 micrograms/kg/injection, schedule: Q01DX009 (ip), vehicle: saline + alcohol 93 % of control | dose: 4000.0 micrograms/kg/injection, schedule: Q01DX009 (ip), vehicle: saline + alcohol 102 % of control

N#Cc1ccc(N(O)C(=O)c2ccccc2)cc1
inactive: dose: 12.5 mg/kg/injection, schedule: Q01DX009 (ip), vehicle: saline with Tween-80 99 % of control | dose: 25.0 mg/kg/injection, schedule: Q01DX009 (ip), vehicle: saline with Tween-80 100 % of control | dose: 50.0 mg/kg/injection, schedule: Q01DX009 (ip), vehicle: saline with Tween-80 99 % of control and 100 % of control

OC(CCl)Cn1nnc2c3ccccc3ccc21 (centres undefined)
inactive: dose: 25.0 mg/kg/injection, schedule: Q01DX005 (ip), vehicle: saline with Tween-80 101 % of control | dose: 50.0 mg/kg/injection, schedule: Q01DX005 (ip), vehicle: saline with Tween-80 101 % of control | dose: 100.0 mg/kg/injection, schedule: Q01DX005 (ip), vehicle: saline with Tween-80 101 % of control | dose: 100.0 mg/kg/injection, schedule: Q04DX003 (ip), vehicle: saline with Tween-80 99 % of control | dose: 200.0 mg/kg/injection, schedule: Q04DX003 (ip), vehicle: saline with Tween-80 94 % of control

CC(C)Nc1nc(Cl)nc(Cl)n1
inactive: [4] 98 % of control | [10] 93 % of control

CCOC(=O)C(=NNc1cc(OC)c(Cl)cc1OC)C(=O)OCC
inactive: [4] 94 % of control | [10] 94 % of control | [11] 94 % of control

CNC(=O)CCl
inactive: [5] 99 % of control | [6] 99 % of control

O=C1CSC(c2ccc(Cl)cc2)N1c1ccc(N2C(=O)CSC2c2ccc(Cl)cc2)cc1 (centres undefined)
inactive: dose: 100.0 mg/kg/injection, schedule: Q01DX001 (ip), vehicle: saline with Tween-80 94 % of control | dose: 200.0 mg/kg/injection, schedule: Q01DX001 (ip), vehicle: saline with Tween-80 91 % of control | dose: 400.0 mg/kg/injection, schedule: Q01DX001 (ip), vehicle: saline with Tween-80 91 % of control

O=C(O)c1ccc2c(c1Sc1ccc(Cl)cc1)C(=O)c1ccccc1C2=O
inactive: dose: 60.0 mg/kg/injection, schedule: Q01DX005 (ip), vehicle: Klucel (hydroxypropylcellulose) (HPC) 100 % of control | dose: 120.0 mg/kg/injection, schedule: Q01DX005 (ip), vehicle: Klucel (hydroxypropylcellulose) (HPC) 90 % of control | dose: 240.0 mg/kg/injection, schedule: Q01DX005 (ip), vehicle: Klucel (hydroxypropylcellulose) (HPC) 99 % of control

O=C(CSCc1c(F)cccc1Cl)Nc1ccc(F)c(Cl)c1
inactive: [7] 97 % of control | [8] 91 % of control | [9] 91 % of control

CC(C)(C)OC(=O)NCC(=O)NCC(=O)O (Boc-Gly-Gly-OH)
inactive: dose: 50.0 mg/kg/injection, schedule: Q01DX005 (ip), vehicle: saline 102 % of control | dose: 100.0 mg/kg/injection, schedule: Q01DX005 (ip), vehicle: saline 102 % of control | dose: 200.0 mg/kg/injection, schedule: Q01DX005 (ip), vehicle: saline 101 % of control

CC(Cl)C(=O)Nc1cc2ccccc2oc1=O (centres undefined)
inactive: [7] 106 % of control | [8] 94 % of control | [9] 93 % of control

CC[C@]12CCCN3CCc4c(n(c5ccccc45)C(=O)C1)[C@@H]32
inactive: dose: 50.0 mg/kg/injection, schedule: Q01DX009 (ip), vehicle: Klucel (hydroxypropylcellulose) (HPC) 95 % of control | dose: 100.0 mg/kg/injection, schedule: Q01DX009 (ip), vehicle: Klucel (hydroxypropylcellulose) (HPC) 107 % of control | dose: 200.0 mg/kg/injection, schedule: Q01DX009 (ip), vehicle: Klucel (hydroxypropylcellulose) (HPC) 91 % of control

O=C(O)C1Cc2c([nH]c3ccccc23)CN1 (centres undefined)
inactive: dose: 12.5 mg/kg/injection, schedule: Q01DX009 (ip), vehicle: suspension in saline 100 % of control | dose: 25.0 mg/kg/injection, schedule: Q01DX009 (ip), vehicle: suspension in saline 109 % of control | [1] 105 % of control | [2] 106 % of control

COc1ccc(Cc2cc(C(C)(C)C)c(O)c(C(C)(C)C)c2)cc1
inactive: dose: 50.0 mg/kg/injection, schedule: Q01DX005 (ip), vehicle: distilled water + alcohol 104 % of control | dose: 100.0 mg/kg/injection, schedule: Q01DX005 (ip), vehicle: distilled water + alcohol 100 % of control | dose: 200.0 mg/kg/injection, schedule: Q01DX005 (ip), vehicle: distilled water + alcohol 93 % of control

CCN(CC)Cc1cc(N=Nc2cc(OC)c(N=Nc3ccc([N+](=O)[O-])cc3)cc2OC)c2cccnc2c1O
inactive: [3] 107 % of control | [4] 106 % of control and 107 % of control and 114 % of control | [10] 112 % of control and 117 % of control and 123 % of control | [11] 112 % of control and 117 % of control | dose: 400.0 mg/kg/injection, schedule: Q01DX005 (ip), vehicle: Klucel (hydroxypropylcellulose) (HPC) 116 % of control

COC(=O)CCC1=C(C)c2cc3[n-]c(cc4nc(cc5[n-]c(cc1n2)c(CCC(=O)OC)c5C)C=C4C)cc3C.[Ni+2]
inactive: dose: 100.0 mg/kg/injection, schedule: Q01DX009 (ip), vehicle: saline with Tween-80 90 % of control | dose: 200.0 mg/kg/injection, schedule: Q01DX009 (ip), vehicle: saline with Tween-80 90 % of control | dose: 400.0 mg/kg/injection, schedule: Q01DX009 (ip), vehicle: saline with Tween-80 86 % of control

Reference: PubChem BioAssay AID330 (DTP/NCI, 2004)
